Laboratory results from ChEMBL document CHEMBL2029348, “Synthesis, biological evaluation, and molecular docking studies of N,1,3-triphenyl-1H-pyrazole-4-carboxamide derivatives as anticancer agents” (Bioorg Med Chem Lett, 2012).
Activity calls are given as the source filed them. The calls are words filed in the database; no cut-off is given here.

Tests used:
MCF7 = test: Cytotoxicity against human MCF7 cells after 48 hrs by MTT assay; assay type: functional, cell-based; conditions: MCF7, 48 h
HCT-116 = test: Cytotoxicity against human HCT116 cells after 48 hrs by MTT assay; assay type: functional, cell-based; conditions: HCT-116, 48 h
Aurora kinase A = molecular target: T1, Aurora kinase A (Homo sapiens, UniProt O14965); test: Inhibition of human recombinant Aurora A kinase using biotinylated peptide substrate preincubated for 15 mins with compound measured after 30 mins by fluorescence analysis
T1 sequence (O14965 whole entry): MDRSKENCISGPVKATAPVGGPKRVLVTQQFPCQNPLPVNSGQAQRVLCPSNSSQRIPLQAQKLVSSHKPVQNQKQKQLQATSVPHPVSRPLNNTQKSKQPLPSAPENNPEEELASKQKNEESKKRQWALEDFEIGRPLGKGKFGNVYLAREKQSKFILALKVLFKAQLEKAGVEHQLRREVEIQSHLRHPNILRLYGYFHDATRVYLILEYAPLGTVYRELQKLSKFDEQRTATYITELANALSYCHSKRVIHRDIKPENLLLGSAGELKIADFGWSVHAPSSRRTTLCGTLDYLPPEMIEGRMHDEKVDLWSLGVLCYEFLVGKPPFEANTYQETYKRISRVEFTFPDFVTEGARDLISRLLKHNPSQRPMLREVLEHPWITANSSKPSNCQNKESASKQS

[1] = molecular target: T2, Aurora kinase A (Homo sapiens) (UniProt O14965); test: Inhibition of Aurora A kinase in human HCT116 cells at 0.5 to 2 uM by Western blot analysis; assay type: cell-based; conditions: HCT-116
T2 sequence (whole entry): T1 sequence (O14965 whole entry)

| Compound | IC50 (Aurora kinase A) [nM] | inhibition [1] | IC50 (MCF7) [nM] | IC50 (HCT-116) [nM] |
| --- | --- | --- | --- | --- |
| CCOc1ccc(NC(=O)c2cn(-c3ccccc3)nc2-c2ccc(OC)cc2)cc1 | 780 | – | 1100 | 970 |
| O=C(Nc1ccccc1)c1cn(-c2ccccc2)nc1-c1ccccc1 | 2340 | – | 2340 | 2310 |
| COc1ccc(NC(=O)c2cn(-c3ccccc3)nc2-c2ccc(OC)cc2)cc1 | 1620 | – | 1770 | 1520 |
| COc1ccc(-c2nn(-c3ccccc3)cc2C(=O)Nc2ccc(Cl)cc2)cc1 | 5590 | – | 4350 | 4060 |
| O=C(Nc1ccc(Cl)cc1)c1cn(-c2ccccc2)nc1-c1ccc(Cl)cc1 | 3180 | – | 3750 | 2990 |
| COc1ccc(NC(=O)c2cn(-c3ccccc3)nc2-c2ccc(Cl)cc2)cc1 | 840 | – | 1550 | 1330 |
| COc1ccc(-c2nn(-c3ccccc3)cc2C(=O)Nc2ccc(Br)cc2)cc1 | 12400 | – | 8210 | 5870 |
| O=C(Nc1ccccc1)c1cn(-c2ccccc2)nc1-c1ccc(Cl)cc1 | 2100 | – | 2340 | 2180 |
| O=C(Nc1ccc(Cl)cc1)c1cn(-c2ccccc2)nc1-c1ccccc1 | 3570 | – | 3860 | 3520 |
| Cc1cc(Nc2cc(N3CCN(C)CC3)nc(Sc3ccc(NC(=O)C4CC4)cc3)n2)n[nH]1 [TOZASERTIB] | – | – | 380 | – |
| COc1ccc(NC(=O)c2cn(-c3ccccc3)nc2-c2ccc(C)cc2)cc1 | 1450 | – | 1620 | 1450 |
| O=C(Nc1ccc(Br)cc1)c1cn(-c2ccccc2)nc1-c1ccc([N+](=O)[O-])cc1 | 5520 | – | 5300 | 4080 |
| Cc1ccc(-c2nn(-c3ccccc3)cc2C(=O)Nc2ccc(Br)cc2)cc1 | 7320 | – | 6080 | 5350 |
| O=C(Nc1ccccc1)c1cn(-c2ccccc2)nc1-c1ccc([N+](=O)[O-])cc1 | 2100 | – | 2260 | 2010 |
| CCOc1ccc(NC(=O)c2cn(-c3ccccc3)nc2-c2ccc(C)cc2)cc1 | 650 | – | 1030 | 780 |
| Cc1ccc(-c2nn(-c3ccccc3)cc2C(=O)Nc2ccc(Cl)cc2)cc1 | 4790 | – | 4010 | 3880 |
| COc1ccc(NC(=O)c2cn(-c3ccccc3)nc2-c2ccc([N+](=O)[O-])cc2)cc1 | 790 | – | 1210 | 1020 |

Continued by falling IC50 (Aurora kinase A), values first:

| IC50 (Aurora kinase A) [nM] | inhibition [1] | Compound | IC50 (MCF7) [nM] | IC50 (HCT-116) [nM] |
| --- | --- | --- | --- | --- |
| 7250 | – | O=C(Nc1ccc(Br)cc1)c1cn(-c2ccccc2)nc1-c1ccccc1 | 5750 | 4470 |
| 5710 | – | O=C(Nc1ccc(Br)cc1)c1cn(-c2ccccc2)nc1-c1ccc(Cl)cc1 | 5310 | 4360 |
| 3040 | – | O=C(Nc1ccc(Cl)cc1)c1cn(-c2ccccc2)nc1-c1ccc([N+](=O)[O-])cc1 | 3240 | 2920 |
| 2780 | – | COc1ccc(-c2nn(-c3ccccc3)cc2C(=O)Nc2ccccc2)cc1 | 2530 | 2540 |
| 2650 | – | Cc1ccc(-c2nn(-c3ccccc3)cc2C(=O)Nc2ccccc2)cc1 | 2450 | 2360 |
| 1330 | – | COc1ccc(NC(=O)c2cn(-c3ccccc3)nc2-c2ccccc2)cc1 | 1710 | 1350 |
| 420 | – | CCOc1ccc(NC(=O)c2cn(-c3ccccc3)nc2-c2ccccc2)cc1 | 880 | 620 |
| 220 | – | CCOc1ccc(NC(=O)c2cn(-c3ccccc3)nc2-c2ccc(Cl)cc2)cc1 | 560 | 420 |
| 160 | Active | CCOc1ccc(NC(=O)c2cn(-c3ccccc3)nc2-c2ccc([N+](=O)[O-])cc2)cc1 | 460 | 390 |
